Structures are written as SMILES. Read-outs that look alike come from different tables or passages of the source.

These results are taken from patent publication US20260317319A1, “NOVEL ERGOLINES AND METHODS OF TREATING MOOD DISORDERS” (Gilgamesh Pharma Inc., priority 2023, published 2026).

The target of one data set is T1, 5-HT2B receptor (Homo sapiens, UniProt P41595).
T1 construct: expressed in transfected cells; host or cells: HEK293, stably transfected
The data set can be described thus: cell-based. The data set is classed as cell-based. Particulars: Ca2+ flux; for EC50: HEK293. An outline of the steps:
(§1)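 FLIPR Tetra fluorescence read-out of calcium flux after compound addition. Receptor-expressing stable lines were used (HEK293 for 2A/2B; CHO with Gα15 for 1A), dye-loaded with Fluo-4 Direct and 2.5 mM final probenecid, 50 min at 37 °C.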
On the technique in general: A change in cytosolic calcium serves as a functional read-out for many receptors and channels.

Another data set deals with T2, 5-HT1A receptor (Homo sapiens, UniProt P08908).
T2 construct: expressed in transfected cells; host or cells: CHO cells, stably transfected
T2 sequence (P08908 1-422): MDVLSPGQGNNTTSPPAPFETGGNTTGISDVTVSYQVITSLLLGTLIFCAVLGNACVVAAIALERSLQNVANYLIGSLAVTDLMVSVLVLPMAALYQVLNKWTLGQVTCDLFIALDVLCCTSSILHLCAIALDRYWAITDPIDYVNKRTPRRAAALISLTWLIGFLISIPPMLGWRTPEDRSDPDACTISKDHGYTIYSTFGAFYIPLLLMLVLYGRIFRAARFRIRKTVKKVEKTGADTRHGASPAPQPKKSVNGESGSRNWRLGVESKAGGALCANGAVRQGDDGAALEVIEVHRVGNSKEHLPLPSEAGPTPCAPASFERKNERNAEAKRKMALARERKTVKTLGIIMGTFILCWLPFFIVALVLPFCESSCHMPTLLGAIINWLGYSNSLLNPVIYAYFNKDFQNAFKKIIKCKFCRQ
In words: cell-based. Particulars: agonist, Ca2+ flux; for EC50: CHO cells with Gα15. A digest of the protocol: as §1

A further data set concerns the target T3, 5-HT1B receptor (Homo sapiens, UniProt P28222).
T3 construct: expressed in transfected cells
In words: cAMP accumulation functional assay at 5-HT1B. It counts as cell-based. As to conditions: agonist, cAMP accumulation. A digest of the protocol:
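Agonist activity measured as cAMP accumulation in cells stably transfected with human 5-HT1B. Cells incubated 60 min at RT, then detection reagent added for a further 60 min at RT before plate reading.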

Data set [1] is described as follows: in vitro. The data set is classed as in vitro ADME, human. As to conditions: HLM 0.50 mg/mL, NADPH 1 mM, 1 μM compound, pH 7.4, 37° C., 60 min.
Data set [2] can be described thus: in vitro. The data set is classed as in vitro ADME, mouse. Particulars: MLM (male CD-1) 0.50 mg/mL, NADPH 1 mM, 1 μM compound, pH 7.4, 37° C., 60 min. The text has this: MLM Stability Pooled MLM from male CD-1 mice (BIOIVT M00501) were used.
Data set [3] in a line: in vitro. The data set is classed as in vitro ADME, rat. As to conditions: RLM (male Sprague-Dawley) 0.50 mg/mL, NADPH 1 mM, 1 μM compound, pH 7.4, 37° C., 60 min. The source says: RLM Stability Pooled RLM from male Sprague-Dawley rats (Xenotech R1000) were used.
The target in a further data set is T4, 5-HT2C receptor (Homo sapiens, UniProt P28335).
T4 sequence (P28335 33-458): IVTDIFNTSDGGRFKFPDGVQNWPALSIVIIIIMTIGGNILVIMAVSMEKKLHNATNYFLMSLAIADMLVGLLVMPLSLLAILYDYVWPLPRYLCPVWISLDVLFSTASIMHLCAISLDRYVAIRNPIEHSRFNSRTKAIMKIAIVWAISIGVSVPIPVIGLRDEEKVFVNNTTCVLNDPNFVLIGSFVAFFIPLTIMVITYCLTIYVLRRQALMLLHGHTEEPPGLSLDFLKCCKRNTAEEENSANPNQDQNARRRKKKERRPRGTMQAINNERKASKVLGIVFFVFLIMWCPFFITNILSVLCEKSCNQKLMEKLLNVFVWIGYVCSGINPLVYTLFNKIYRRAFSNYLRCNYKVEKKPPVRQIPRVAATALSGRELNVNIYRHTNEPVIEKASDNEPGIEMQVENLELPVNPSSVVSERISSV
In words: Ca2+ flux functional assay at 5-HT2C (WuXi 5-HT2C protocol). It counts as cell-based. The arrangement: expressed in transfected cells. Here is the method: Disclosed compounds were tested for agonist activity at several serotonin receptor subtypes (5-HT2A, […], 5-HT2C, and 5-HT1A) using Ca^2+ flux functional assays and the 5-HT1B receptor using a cAMP accumulation assay, with the results summarized in Table 4. […] Potent agonist activity was also observed at the other serotonin receptors tested, although the selectivity profile among the receptors varied across compounds. […] However, at the same time, the N-propyl compounds were more efficacious agonists at 5-HT2B than the corresponding N-methyl compounds. The selectivity of disclosed compounds for 5-HT2A over 5-HT2C and 5-HT1A was less predictable and varied widely across compounds. […] An azetidinyl amide substituent tended to increase potency at 5-HT1A relative to 5-HT2A.
Functional Assays at 5-HT2A, 5-HT2B, and 5-HT1A. Agonist activity at 5-HT2A, 5-HT2B, 5HT2C and 5-HT1A receptors was determined using a FLIPR Ca^2+ flux assay at WuXi AppTec (Hong Kong) Limited according to their standard protocols. Briefly, stably transfected cells expressing the receptor of interest and Gα15 in the case of 5-HT1A (HEK293 for 5-HT2A and 5-HT2B; CHO cells for 5-HT1A) were grown and plated in a 384 well plate and incubated at 37° C. and 5% CO2 overnight. A solution of 250 mM probenecid in 1 mL FLIPR assay buffer was prepared fresh. This was combined with a fluorescent dye (Fluo-4 Direct™) to make a final assay concentration of 2.5 mM. Compounds were diluted 1:3.16 for 10 points and 750 nL was added to a 384 well compound plate using ECHO along with 30 μL assay buffer. The fluorescent dye was then added to the assay plate along with assay buffer to a final volume of 40 μL. The cell plate was incubated for 50 min at 37° C. and 5% CO2 and placed into the FLIPR Tetra along with the compound plate. 10 μL of references and compounds were then transferred from the compound plate into the cell plate and the fluorescent signal was read.

Data set [4] deals with T5, 5-HT2A receptor (Homo sapiens, UniProt P28223). The data set can be described thus: biochemical. The arrangement: expressed in transfected cells; host or cells: HEK293, stably transfected. The data set is classed as binding. Particulars: [3H]ketanserin 1 nM; HEK293 stable cell line; 1 h, 25 °C. A digest of the protocol:
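Affinity was measured in radioligand binding experiments using [^3H]ketanserin as the labelled ligand, following methods adapted from published procedures.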

The target of data set [5] is T5, 5-HT2A receptor. The data set can be described thus: cell-based. It counts as cell-based. The arrangement: expressed in transfected cells; host or cells: HEK293, stably transfected. As to conditions: Ca2+ flux; for EC50: HEK293. An outline of the steps: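 Cells plated and incubated overnight at 37 °C, 5% CO2; Fluo-4 Direct dye with probenecid (final 2.5 mM) added, 50 min at 37 °C; test compounds transferred and Ca2+ signal recorded. HEK293 hosts for 5-HT2A/2B, CHO + Gα15 for 5-HT1A.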

The target in data set [6] is T5, 5-HT2A receptor. In words: cell-based. As to conditions: beta-arrestin recruitment. The data set is classed as cell-based. An outline of the steps: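 PathHunter β-arrestin recruitment (enzyme fragment complementation): 5-HT2A fused to ProLink donor in cells co-expressing β-arrestin–β-galactosidase acceptor, seeded and held at 37° C before testing. Chemiluminescent read-out; agonist % activity = (sample RLU − vehicle)/(max control ligand − vehicle) × 100.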

The subject of a further data set is C57BL/6 mice. In words: Mouse head twitch response (HTR) assay (observer-counted). It counts as in vivo. As to conditions: SC. Here is the method: Agonists of the 5-HT2A receptor are well known to induce this effect in rodents and the potency of this HTR is correlated with hallucinogenic potency in humans.
Animals. Adult male C57BL/6 mice, aged 6-8 weeks (body weight 20-25 g) were used in this experiment. Animals were housed under controlled temperatures and 12-hour light/dark cycles (lights on between 07:00-19:00 h), with ad libitum food and water. This study was carried out in strict accordance with the requirements of the Committee for the Purpose of Control and Supervision of Experiments on Animals (CPCSEA), India. All efforts were made to minimize suffering.
Procedure. Mice were administered one dose of the drug and immediately placed into a small open field for behavioral observation. Animals were observed continuously for 20 mins and the number of head twitches (HTs) were counted by an observer blind to the treatment condition.
Statistical Analysis. The data points shown are the mean±standard error of the mean (SEM). Analysis was performed using GraphPad Prism 6. Curves were fit using a non-linear gaussian distribution to calculate ED50 and Emax values.
Additional disclosed compounds were tested in the mouse head twitch response (HTR) assay according to the procedure described in Example 57 (administered SC). […] Lastly, compounds with much larger benzyl and phenethyl substituents on the amine nitrogen (e.g., 10 and 11) were low efficacy in this assay, consistent with their bias toward arrestin signaling (see Example 55).

T1 sequence (P41595 whole entry): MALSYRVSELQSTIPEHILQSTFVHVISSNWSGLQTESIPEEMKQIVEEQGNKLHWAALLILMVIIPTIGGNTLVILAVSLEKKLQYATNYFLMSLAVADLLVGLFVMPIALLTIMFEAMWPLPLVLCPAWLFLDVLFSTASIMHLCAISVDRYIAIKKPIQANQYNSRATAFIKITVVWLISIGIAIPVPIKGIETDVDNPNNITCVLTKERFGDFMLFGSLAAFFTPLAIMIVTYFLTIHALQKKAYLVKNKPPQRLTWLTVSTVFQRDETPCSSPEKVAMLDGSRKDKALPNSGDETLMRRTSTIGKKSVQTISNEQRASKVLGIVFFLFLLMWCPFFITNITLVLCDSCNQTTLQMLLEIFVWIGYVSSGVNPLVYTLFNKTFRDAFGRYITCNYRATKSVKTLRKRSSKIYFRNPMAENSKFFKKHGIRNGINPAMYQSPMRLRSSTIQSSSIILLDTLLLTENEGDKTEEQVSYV
T5 sequence (P28223 whole entry): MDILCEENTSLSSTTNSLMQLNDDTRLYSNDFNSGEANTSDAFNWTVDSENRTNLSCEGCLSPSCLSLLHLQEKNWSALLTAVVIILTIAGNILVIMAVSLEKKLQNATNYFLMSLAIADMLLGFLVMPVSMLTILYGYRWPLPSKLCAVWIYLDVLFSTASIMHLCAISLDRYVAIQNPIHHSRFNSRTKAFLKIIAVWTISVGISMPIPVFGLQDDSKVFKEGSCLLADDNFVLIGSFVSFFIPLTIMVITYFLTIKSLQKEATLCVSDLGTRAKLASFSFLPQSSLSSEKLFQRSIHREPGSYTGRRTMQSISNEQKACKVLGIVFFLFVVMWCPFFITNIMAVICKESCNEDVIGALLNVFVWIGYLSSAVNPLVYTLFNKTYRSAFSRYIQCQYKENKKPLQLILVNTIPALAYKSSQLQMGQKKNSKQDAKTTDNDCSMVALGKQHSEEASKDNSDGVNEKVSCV
T3 sequence (P28222 whole entry): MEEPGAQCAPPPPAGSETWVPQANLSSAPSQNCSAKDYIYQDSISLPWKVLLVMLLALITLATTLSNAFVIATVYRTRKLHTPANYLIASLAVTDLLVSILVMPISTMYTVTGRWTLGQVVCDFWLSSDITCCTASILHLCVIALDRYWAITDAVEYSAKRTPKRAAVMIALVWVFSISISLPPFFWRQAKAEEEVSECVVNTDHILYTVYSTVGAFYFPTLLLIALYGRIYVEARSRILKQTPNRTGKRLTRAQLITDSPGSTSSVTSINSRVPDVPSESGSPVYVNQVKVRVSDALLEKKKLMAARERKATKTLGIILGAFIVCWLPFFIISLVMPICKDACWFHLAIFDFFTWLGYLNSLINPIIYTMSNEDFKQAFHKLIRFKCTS

In general, EC50 refers to the midpoint of the concentration-response curve. What is called Ki is the dissociation constant of the complex between target and ligand, obtained from inhibition or displacement. Higher therefore signals lower affinity. Consider `CCN(CC)C(=O)[C@@H]1C=C2c3cccc4[nH]cc(c34)C[C@H]2N(Cc2ccnc(OC)c2)C1` [Compound 79], for which the EC50 is more than 10 µM on 5-HT2B receptor (agonist); 8.05 µM at 5-HT1A receptor; more than 10 µM at 5-HT1B receptor; more than 10 µM at 5-HT2C receptor (agonist, Ca2+ flux, tested using WuXi 5-HT2C protocol, read-out: 5-HT2C EC50 (* WuXi protocol)); 2.5 µM on 5-HT2A receptor [5] (agonist). For the same compound, at 5-HT2B receptor (agonist, HEK293, max dose), the “5-HT2B % Act @ Max Dose” value was 1.38%. Further, the “5-HT1A % Act @ Max Dose” value on 5-HT1A receptor (CHO cells with Gα15, max dose) is given as 77.71%. The “5-HT1B % Act @ Max Dose” value at 5-HT1B receptor (max dose) amounted to 42.45%. In addition, the figures for the “Intrinsic clearance (Clint)” value in the data set “in vitro [1]”, in the data set “in vitro [2]” and in “in vitro [3]” were 61.2 µL/min/mg, 298.4 µL/min/mg and 80.5 µL/min/mg, respectively. The “half-life (t1/2)” value in the data set “in vitro [1]” was 22.7 min; in the data set “in vitro [2]”, 4.6 min; in the data set “in vitro [3]” it was 17.2 min. For the same compound, on 5-HT2C receptor (agonist, tested using WuXi 5-HT2C protocol, max dose), the “5-HT2C % Act @ Max Dose (* WuXi protocol)” value is given as 0.60* %. Further, affinity at 5-HT2A receptor [4] was put at a Ki of 0.182 µM. Also, the “5-HT2A % Act @ Max Dose” value at 5-HT2A receptor [5] (agonist, HEK293, max dose) came out at 68.17%.

As for `CCN(CC)C(=O)[C@@H]1C=C2c3cccc4[nH]cc(c34)C[C@H]2N(Cc2ccccc2C)C1` [Compound 99, (6aR,9R)—N,N-diethyl-7-(2-methylbenzyl)-4,6,6a,7,8,9-hexahydroindolo[4,3-fg]quinoline-9-carboxamide], the Emax on 5-HT2B receptor (HEK293, agonist, HEK293, max dose, read-out: 5-HT2B % Act @ Max Dose) came out at 1.41%; at 5-HT1A receptor (CHO, CHO cells with Gα15, max dose, read-out: 5-HT1A % Act @ Max Dose), 69.9%; at 5-HT2C receptor (agonist, tested using WuXi 5-HT2C protocol, max dose, read-out: 5-HT2C % Act @ Max Dose (* WuXi protocol)), 0.56%; at 5-HT2A receptor [5] (HEK293, agonist, HEK293, max dose, read-out: 5-HT2A % Act @ Max Dose), 73.6%. The half-maximal effective concentration (EC50) was more than 10 µM on 5-HT2B receptor (agonist), 19.6 µM at 5-HT1A receptor, more than 10 µM at 5-HT2C receptor and 1.21 µM on 5-HT2A receptor [5] (agonist). For the same compound, the microsomal CLint in the data set “in vitro [1]” (human, microsomes, read-out: Intrinsic clearance (Clint)) came out at 86.4 µL/min/mg; in the data set “in vitro [2]” (mouse, microsomes, read-out: Intrinsic clearance (Clint)) it was 426 µL/min/mg; in the data set “in vitro [3]” (rat, microsomes, read-out: Intrinsic clearance (Clint)) it was 174 µL/min/mg. In addition, the half-life in “in vitro [1]” (human, microsomes, read-out: half-life (t1/2)) was 16 min; in “in vitro [2]” (mouse, microsomes, read-out: half-life (t1/2)), 3.3 min; in “in vitro [3]” (rat, microsomes, read-out: half-life (t1/2)), 8 min. The same compound yielded a Ki at 5-HT2A receptor [4] of 0.00922 µM.

Turning to `C[C@H]1C[C@H](C)N1C(=O)[C@@H]1C=C2c3cccc4[nH]cc(c34)C[C@H]2N(C)C1` [Int11], at 5-HT2A receptor [6] (agonist, max dose), the “5-HT2A Arrestin % Act @ Max Dose” value is reported as 49.27%. Moreover, the “5-HT2A arrestin agonist class” value on 5-HT2A receptor [6] is listed as “partial agonists”. Moreover, the “5-HT2A arrestin Emax (bound)” value on 5-HT2A receptor [6] (partial agonists) is recorded as less than 60%. Besides, the “ED50 (HTR)” value with C57BL/6 mice (20 min, curve fit poor in some cases) stood at 0.0154 mg/kg. For the same compound, the “Emax, HTR/20 min” value with C57BL/6 mice (curve fit poor in some cases) is 10.93 HTR/20 min. In the data set with C57BL/6 mice (maximal effect), the “efficacy in HTR assay” value is “lower efficacy than analogous compounds bearing other amide substituents”. For the same compound, the “# HTR/20 min at Most Efficacious Dose” value with C57BL/6 mice (most efficacious dose 0.1 mg/kg) came to 10.667 HTR/20 min. In addition, the entries for the “Intrinsic clearance (Clint)” value in the data set “in vitro [1]”, in “in vitro [2]” and in “in vitro [3]” were 53.9 µL/min/mg, 100 µL/min/mg and 25.3 µL/min/mg, respectively. The “half-life (t1/2)” value was determined as 25.7 min in the data set “in vitro [1]”, 13.9 min in “in vitro [2]” and 54.9 min in “in vitro [3]”.
